Test system: participants with cocaine use disorder
Assay: Medical safety session: subjective effects questionnaires after intranasal cocaine
Type: in vivo, human
Procedure: Participants completed one, single-blind medical safety session to ensure they could tolerate intranasal cocaine. Intranasal cocaine doses (i.e., 0 [placebo], 10, 20, 40 and 80 mg) were administered in ascending order. Placebo (i.e., 0 mg) was administered at 0900 hours. The subjective-effect questionnaires and cardiovascular measures described below were completed 30 minutes before placebo administration (i.e., 0830 hours), immediately following and at 15-minute intervals for 45 minutes. Subsequent cocaine administrations were separated by 45 minutes.

[1] = Cocaine 10 mg, Topiramate (0 mg/day) group
[2] = Cocaine 10 mg, Topiramate (50 mg/day) group
[3] = Cocaine 10 mg, Topiramate (100 mg/day) group
[4] = Cocaine 20 mg, Topiramate (0 mg/day) group
[5] = Cocaine 20 mg, Topiramate (50 mg/day) group
[6] = Cocaine 20 mg, Topiramate (100 mg/day) group

COC(=O)[C@H]1[C@@H](OC(=O)c2ccccc2)C[C@@H]2CC[C@H]1N2C [Cocaine, cocaine]
Adjective Rating Scales Sedative, mean peak effect [1]: 2.0 | Adjective Rating Scales Stimulant, mean peak effect [1]: 6.1 | Drug-Effect Questionnaire Active-Alert-Energetic, mean peak effect [1]: 17.0 | Drug-Effect Questionnaire Any Effect, mean peak effect [1]: 21.5 | Drug-Effect Questionnaire Bad Effects, mean peak effect [1]: 4.4 | Drug-Effect Questionnaire Euphoric, mean peak effect [1]: 10.1 | Drug-Effect Questionnaire Good Effects, mean peak effect [1]: 21.5 | Drug-Effect Questionnaire High, mean peak effect [1]: 17.3 | Drug-Effect Questionnaire Irregular Heart Beat, mean peak effect [1]: 7.0 | Drug-Effect Questionnaire Like Drug, mean peak effect [1]: 25.2 | Drug-Effect Questionnaire Nausea-Queasy-Sick, mean peak effect [1]: 3.3 | Drug-Effect Questionnaire Nervous-Anxious, mean peak effect [1]: 5.1 | Drug-Effect Questionnaire Performance Impaired, mean peak effect [1]: 4.9 | Drug-Effect Questionnaire Performance Improved, mean peak effect [1]: 10.7 | Drug-Effect Questionnaire Restless, mean peak effect [1]: 7.9 | Drug-Effect Questionnaire Rush, mean peak effect [1]: 15.5 | Drug-Effect Questionnaire Shaky-Jittery, mean peak effect [1]: 3.9 | Drug-Effect Questionnaire Sluggish-Fatigued-Lazy, mean peak effect [1]: 8.1 | Drug-Effect Questionnaire Stimulated, mean peak effect [1]: 13.8 | Drug-Effect Questionnaire Talkative-Friendly, mean peak effect [1]: 17.0 | Drug-Effect Questionnaire Willing to Pay For, mean peak effect [1]: 20.6 | Drug-Effect Questionnaire Willing to Take Again, mean peak effect [1]: 26.3 | Adjective Rating Scales Sedative, mean peak effect [2]: 3.9 | Adjective Rating Scales Stimulant, mean peak effect [2]: 8.7 | Drug-Effect Questionnaire Active-Alert-Energetic, mean peak effect [2]: 11.2 | Drug-Effect Questionnaire Any Effect, mean peak effect [2]: 7.0 | Drug-Effect Questionnaire Bad Effects, mean peak effect [2]: 1.2 | Drug-Effect Questionnaire Euphoric, mean peak effect [2]: 3.4 | Drug-Effect Questionnaire Good Effects, mean peak effect [2]: 6.4 | Drug-Effect Questionnaire High, mean peak effect [2]: 6.1 | Drug-Effect Questionnaire Irregular Heart Beat, mean peak effect [2]: 0.6 | Drug-Effect Questionnaire Like Drug, mean peak effect [2]: 9.2 | Drug-Effect Questionnaire Nausea-Queasy-Sick, mean peak effect [2]: 1.2 | Drug-Effect Questionnaire Nervous-Anxious, mean peak effect [2]: 0.3 | Drug-Effect Questionnaire Performance Impaired, mean peak effect [2]: 0.9 | Drug-Effect Questionnaire Performance Improved, mean peak effect [2]: 3.3 | Drug-Effect Questionnaire Restless, mean peak effect [2]: 1.2 | Drug-Effect Questionnaire Rush, mean peak effect [2]: 5.9 | Drug-Effect Questionnaire Shaky-Jittery, mean peak effect [2]: 1.4 | Drug-Effect Questionnaire Sluggish-Fatigued-Lazy, mean peak effect [2]: 5.4 | Drug-Effect Questionnaire Stimulated, mean peak effect [2]: 11.9 | Drug-Effect Questionnaire Talkative-Friendly, mean peak effect [2]: 4.7 | Drug-Effect Questionnaire Willing to Pay For, mean peak effect [2]: 5.4 | Drug-Effect Questionnaire Willing to Take Again, mean peak effect [2]: 12.0 | Adjective Rating Scales Sedative, mean peak effect [3]: 3.1 | Adjective Rating Scales Stimulant, mean peak effect [3]: 10.6 | Drug-Effect Questionnaire Active-Alert-Energetic, mean peak effect [3]: 6.4 | Drug-Effect Questionnaire Any Effect, mean peak effect [3]: 10.7 | Drug-Effect Questionnaire Bad Effects, mean peak effect [3]: 0.2 | Drug-Effect Questionnaire Euphoric, mean peak effect [3]: 5.6 | Drug-Effect Questionnaire Good Effects, mean peak effect [3]: 14.5 | Drug-Effect Questionnaire High, mean peak effect [3]: 7.4 | Drug-Effect Questionnaire Irregular Heart Beat, mean peak effect [3]: 2.8 | Drug-Effect Questionnaire Like Drug, mean peak effect [3]: 10.1 | Drug-Effect Questionnaire Nausea-Queasy-Sick, mean peak effect [3]: 6.8 | Drug-Effect Questionnaire Nervous-Anxious, mean peak effect [3]: 0.2 | Drug-Effect Questionnaire Performance Impaired, mean peak effect [3]: 0.2 | Drug-Effect Questionnaire Performance Improved, mean peak effect [3]: 2.1 | Drug-Effect Questionnaire Restless, mean peak effect [3]: 0.7 | Drug-Effect Questionnaire Rush, mean peak effect [3]: 6.9 | Drug-Effect Questionnaire Shaky-Jittery, mean peak effect [3]: 0.3 | Drug-Effect Questionnaire Sluggish-Fatigued-Lazy, mean peak effect [3]: 0.5 | Drug-Effect Questionnaire Stimulated, mean peak effect [3]: 7.7 | Drug-Effect Questionnaire Talkative-Friendly, mean peak effect [3]: 7.8 | Drug-Effect Questionnaire Willing to Pay For, mean peak effect [3]: 8.6 | Drug-Effect Questionnaire Willing to Take Again, mean peak effect [3]: 12.6 | Adjective Rating Scales Sedative, mean peak effect [4]: 4.6 | Adjective Rating Scales Stimulant, mean peak effect [4]: 8.4 | Drug-Effect Questionnaire Active-Alert-Energetic, mean peak effect [4]: 23.5 | Drug-Effect Questionnaire Any Effect, mean peak effect [4]: 28.6 | Drug-Effect Questionnaire Bad Effects, mean peak effect [4]: 4.5 | Drug-Effect Questionnaire Euphoric, mean peak effect [4]: 11.5 | Drug-Effect Questionnaire Good Effects, mean peak effect [4]: 26.1 | Drug-Effect Questionnaire High, mean peak effect [4]: 20.0 | Drug-Effect Questionnaire Irregular Heart Beat, mean peak effect [4]: 8.8 | Drug-Effect Questionnaire Like Drug, mean peak effect [4]: 27.8 | Drug-Effect Questionnaire Nausea-Queasy-Sick, mean peak effect [4]: 2.9 | Drug-Effect Questionnaire Nervous-Anxious, mean peak effect [4]: 8.5 | Drug-Effect Questionnaire Performance Impaired, mean peak effect [4]: 10.4 | Drug-Effect Questionnaire Performance Improved, mean peak effect [4]: 12.0 | Drug-Effect Questionnaire Restless, mean peak effect [4]: 8.9 | Drug-Effect Questionnaire Rush, mean peak effect [4]: 19.4 | Drug-Effect Questionnaire Shaky-Jittery, mean peak effect [4]: 8.8 | Drug-Effect Questionnaire Sluggish-Fatigued-Lazy, mean peak effect [4]: 6.8 | Drug-Effect Questionnaire Stimulated, mean peak effect [4]: 18.7 | Drug-Effect Questionnaire Talkative-Friendly, mean peak effect [4]: 18.6 | Drug-Effect Questionnaire Willing to Pay For, mean peak effect [4]: 24.9 | Drug-Effect Questionnaire Willing to Take Again, mean peak effect [4]: 32.9 | Adjective Rating Scales Sedative, mean peak effect [5]: 2.8 | Adjective Rating Scales Stimulant, mean peak effect [5]: 8.6 | Drug-Effect Questionnaire Active-Alert-Energetic, mean peak effect [5]: 12.8 | Drug-Effect Questionnaire Any Effect, mean peak effect [5]: 9.9 | Drug-Effect Questionnaire Bad Effects, mean peak effect [5]: 0.3 | Drug-Effect Questionnaire Euphoric, mean peak effect [5]: 12.4 | Drug-Effect Questionnaire Good Effects, mean peak effect [5]: 11.2 | Drug-Effect Questionnaire High, mean peak effect [5]: 13.1 | Drug-Effect Questionnaire Irregular Heart Beat, mean peak effect [5]: 0.6 | Drug-Effect Questionnaire Like Drug, mean peak effect [5]: 14.6 | Drug-Effect Questionnaire Nausea-Queasy-Sick, mean peak effect [5]: 2.2 | Drug-Effect Questionnaire Nervous-Anxious, mean peak effect [5]: 0.0 | Drug-Effect Questionnaire Performance Impaired, mean peak effect [5]: 2.4 | Drug-Effect Questionnaire Performance Improved, mean peak effect [5]: 5.4 | Drug-Effect Questionnaire Restless, mean peak effect [5]: 0.7 | Drug-Effect Questionnaire Rush, mean peak effect [5]: 14.1 | Drug-Effect Questionnaire Shaky-Jittery, mean peak effect [5]: 1.1 | Drug-Effect Questionnaire Sluggish-Fatigued-Lazy, mean peak effect [5]: 0.8 | Drug-Effect Questionnaire Stimulated, mean peak effect [5]: 15.6 | Drug-Effect Questionnaire Talkative-Friendly, mean peak effect [5]: 10.2 | Drug-Effect Questionnaire Willing to Pay For, mean peak effect [5]: 7.6 | Drug-Effect Questionnaire Willing to Take Again, mean peak effect [5]: 10.2 | Adjective Rating Scales Sedative, mean peak effect [6]: 3.7 | Adjective Rating Scales Stimulant, mean peak effect [6]: 11.1 | Drug-Effect Questionnaire Active-Alert-Energetic, mean peak effect [6]: 11.0 | Drug-Effect Questionnaire Any Effect, mean peak effect [6]: 11.7 | Drug-Effect Questionnaire Bad Effects, mean peak effect [6]: 2.2 | Drug-Effect Questionnaire Euphoric, mean peak effect [6]: 5.7 | Drug-Effect Questionnaire Good Effects, mean peak effect [6]: 10.2 | Drug-Effect Questionnaire High, mean peak effect [6]: 12.8 | Drug-Effect Questionnaire Irregular Heart Beat, mean peak effect [6]: 3.2 | Drug-Effect Questionnaire Like Drug, mean peak effect [6]: 14.9 | Drug-Effect Questionnaire Nausea-Queasy-Sick, mean peak effect [6]: 10.6 | Drug-Effect Questionnaire Nervous-Anxious, mean peak effect [6]: 6.6 | Drug-Effect Questionnaire Performance Impaired, mean peak effect [6]: 5.5 | Drug-Effect Questionnaire Performance Improved, mean peak effect [6]: 4.0 | Drug-Effect Questionnaire Restless, mean peak effect [6]: 0.2 | Drug-Effect Questionnaire Rush, mean peak effect [6]: 12.4 | Drug-Effect Questionnaire Shaky-Jittery, mean peak effect [6]: 3.1 | Drug-Effect Questionnaire Sluggish-Fatigued-Lazy, mean peak effect [6]: 1.1 | Drug-Effect Questionnaire Stimulated, mean peak effect [6]: 10.5 | Drug-Effect Questionnaire Talkative-Friendly, mean peak effect [6]: 11.2 | Drug-Effect Questionnaire Willing to Pay For, mean peak effect [6]: 11.7 | Drug-Effect Questionnaire Willing to Take Again, mean peak effect [6]: 11.6

Reference: US20220370406A1, “METHOD OF TREATING STIMULANT USE DISORDER USING A COMBINATION OF TOPIRAMATE AND PHENTERMINE” (University of Kentucky Research Foundation, priority 2019, published 2022)
